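Test compounds were applied to cells in 96-well plates for 48 hours at 5 doses. The concentration for 50% growth inhibition is given as GI50.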 Calls of active or inactive are those of the source. Cut-off read from the data, not from the text of the source: active = GI50 up to about 1.1 µM and inactive = higher.
Assays:
Assay in all cases: inhibition of tumour cell growth, NCI panel, 48 h
[1] = tested on: 786-0
[2] = tested on: A498
[3] = tested on: A549
[4] = tested on: ACHN
[5] = tested on: CAKI-1
[6] = tested on: CCRF-CEM
[7] = tested on: COLO 205
[8] = tested on: DLD-1
[9] = tested on: DMS-273
[10] = tested on: EKVX
[11] = tested on: HCC 2998
[12] = tested on: HCT-116
[13] = tested on: HCT-15
[14] = tested on: HL-60
[15] = tested on: HOP-18
[16] = tested on: HOP-92
[17] = tested on: HT-29
[18] = tested on: IGROV-1
[19] = tested on: K562
[20] = tested on: KM-20L2
[21] = tested on: KM12
[22] = tested on: LOX IMVI
[23] = tested on: LXFL 529
[24] = tested on: M14
[25] = tested on: M19-MEL
[26] = tested on: MOLT-4
[27] = tested on: Malme-3M
[28] = tested on: NCI-H226
[29] = tested on: NCI-H23
[30] = tested on: NCI-H460
[31] = tested on: NCI-H522
[32] = tested on: OVCAR-3
[33] = tested on: OVCAR-4
[34] = tested on: OVCAR-5
[35] = tested on: OVCAR-8
[36] = tested on: RPMI-8226
[37] = tested on: RXF 393
[38] = tested on: SF-268
[39] = tested on: SF-295
[40] = tested on: SF-539
[41] = tested on: SK-MEL-28
[42] = tested on: SK-MEL-2
[43] = tested on: SK-MEL-5
[44] = tested on: SK-OV-3
[45] = tested on: SN12C
[46] = tested on: SNB-19
[47] = tested on: SNB-75
[48] = tested on: SNB-78
[49] = tested on: SW-620
[50] = tested on: TK-10
[51] = tested on: U-251
[52] = tested on: UACC-257
[53] = tested on: UACC-62
[54] = tested on: UO-31
[55] = tested on: DMS-114
[56] = tested on: HOP-62
[57] = tested on: SR

## COC(=O)c1c(-c2ccccc2)sc(-c2cccc3ccccc23)c1C(=O)OC
[1]
  GI50: > 100 µM (inactive)
[2]
  GI50: > 100 µM (inactive)
[3]
  GI50: > 100 µM (inactive)
[4]
  GI50: > 100 µM (inactive)
[5]
  GI50: > 100 µM (inactive)
[6]
  GI50: > 100 µM (inactive)
[7]
  GI50: > 100 µM (inactive)
[8]
  GI50: 18 µM (inactive)
[9]
  GI50: > 100 µM (inactive)
[10]
  GI50: > 100 µM (inactive)
[11]
  GI50: 88.3 µM (inactive)
[12]
  GI50: > 100 µM (inactive)
[13]
  GI50: > 100 µM
[14]
  GI50: > 100 µM (inactive)
[15]
  GI50: > 100 µM (inactive)
[16]
  GI50: > 100 µM (inactive)
[17]
  GI50: 51.3 µM (inactive)
[18]
  GI50: > 100 µM (inactive)
[19]
  GI50: > 100 µM (inactive)
[20]
  GI50: > 100 µM (inactive)
[21]
  GI50: > 100 µM (inactive)
[22]
  GI50: > 100 µM (inactive)
[23]
  GI50: > 100 µM (inactive)
[24]
  GI50: > 100 µM (inactive)
[25]
  GI50: > 100 µM (inactive)
[26]
  GI50: > 100 µM (inactive)
[27]
  GI50: 21.9 µM (inactive)
[28]
  GI50: > 100 µM (inactive)
[29]
  GI50: > 100 µM (inactive)
[30]
  GI50: > 100 µM (inactive)
[31]
  GI50: > 100 µM (inactive)
[32]
  GI50: 81.1 µM (inactive)
[33]
  GI50: 84.7 µM (inactive)
[34]
  GI50: > 100 µM (inactive)
[35]
  GI50: > 100 µM (inactive)
[36]
  GI50: > 100 µM (inactive)
[37]
  GI50: > 100 µM (inactive)
[38]
  GI50: > 100 µM (inactive)
[39]
  GI50: > 100 µM (inactive)
[40]
  GI50: > 100 µM (inactive)
[41]
  GI50: > 100 µM (inactive)
[42]
  GI50: > 100 µM (inactive)
[43]
  GI50: > 100 µM (inactive)
[44]
  GI50: > 100 µM (inactive)
[45]
  GI50: > 100 µM (inactive)
[46]
  GI50: > 100 µM (inactive)
[47]
  GI50: > 100 µM (inactive)
[48]
  GI50: > 100 µM (inactive)
[49]
  GI50: > 100 µM (inactive)
[50]
  GI50: > 100 µM (inactive)
[51]
  GI50: > 100 µM (inactive)
[52]
  GI50: > 100 µM (inactive)
[53]
  GI50: > 100 µM (inactive)
[54]
  GI50: 58.2 µM (inactive)

## NC(CCC(=O)NC(CSC(=O)N(O)c1ccccc1)C(=O)NCC(=O)O)C(=O)O (stereo not drawn)
[1]
  GI50: > 1000 µM (inactive)
[2]
  GI50: > 1000 µM (inactive)
[3]
  GI50: > 1000 µM (inactive)
[4]
  GI50: > 1000 µM (inactive)
[5]
  GI50: > 1000 µM (inactive)
[6]
  GI50: > 1000 µM (inactive)
[7]
  GI50: > 1000 µM (inactive)
[8]
  GI50: > 1000 µM (inactive)
[55]
  GI50: > 1000 µM (inactive)
[9]
  GI50: > 1000 µM (inactive)
[10]
  GI50: > 1000 µM (inactive)
[11]
  GI50: > 1000 µM (inactive)
[12]
  GI50: > 1000 µM (inactive)
[13]
  GI50: > 1000 µM
[14]
  GI50: > 1000 µM (inactive)
[56]
  GI50: > 1000 µM (inactive)
[16]
  GI50: > 1000 µM (inactive)
[17]
  GI50: > 1000 µM (inactive)
[18]
  GI50: > 1000 µM (inactive)
[19]
  GI50: > 1000 µM (inactive)
[20]
  GI50: > 1000 µM (inactive)
[21]
  GI50: > 1000 µM (inactive)
[22]
  GI50: > 1000 µM (inactive)
[23]
  GI50: > 1000 µM (inactive)
[24]
  GI50: > 1000 µM (inactive)
[25]
  GI50: > 1000 µM (inactive)
[27]
  GI50: > 1000 µM (inactive)
[28]
  GI50: > 1000 µM (inactive)
[29]
  GI50: > 1000 µM (inactive)
[30]
  GI50: > 1000 µM (inactive)
[31]
  GI50: > 1000 µM (inactive)
[32]
  GI50: > 1000 µM (inactive)
[33]
  GI50: > 1000 µM (inactive)
[34]
  GI50: > 1000 µM (inactive)
[35]
  GI50: > 1000 µM (inactive)
[37]
  GI50: > 1000 µM (inactive)
[38]
  GI50: > 1000 µM (inactive)
[39]
  GI50: > 1000 µM (inactive)
[40]
  GI50: > 1000 µM (inactive)
[41]
  GI50: > 1000 µM (inactive)
[42]
  GI50: > 1000 µM (inactive)
[43]
  GI50: > 1000 µM (inactive)
[44]
  GI50: > 1000 µM (inactive)
[45]
  GI50: > 1000 µM (inactive)
[46]
  GI50: > 1000 µM (inactive)
[47]
  GI50: > 1000 µM (inactive)
[48]
  GI50: > 1000 µM (inactive)
[57]
  GI50: > 1000 µM (inactive)
[49]
  GI50: > 1000 µM (inactive)
[50]
  GI50: > 1000 µM (inactive)
[51]
  GI50: > 1000 µM (inactive)
[52]
  GI50: > 1000 µM (inactive)
[53]
  GI50: > 1000 µM (inactive)
[54]
  GI50: 918 µM (inactive)

— ChEMBL document CHEMBL1201862, “PubChem BioAssay data set” (2004)
